Data on 13 compounds can be found in ChEMBL document CHEMBL5223171, “Synthesis and discovery of Baylis-Hillman adducts as potent and selective thioredoxin reductase inhibitors for cancer treatment” (Bioorg Med Chem, 2023).

Assay [1] has as its system HeLa. Nature of the assay: Cytotoxicity against human HeLa cells assessed as reduction in cell viability incubated for 72 hrs by MTT assay. Type of assay: functional, cell-based.
Assay [2] has as its system HepG2. Nature of the assay: Cytotoxicity against human HepG2 cells assessed as reduction in cell viability incubated for 72 hrs by MTT assay. Type of assay: functional, cell-based. The note with it: HepG2, 72 h. Background: Tetrazolium dyes change colour on reduction, which living cells bring about.
Assay [3] deals with A549. The assay is described as follows: Cytotoxicity against human A549 cells assessed as reduction in cell viability incubated for 72 hrs by MTT assay. The format is functional, cell-based. To be noted: A549, 72 h.
Assay [4] is described as follows: Inhibition of recombinant TrxR (unknown origin) using DTNB as substrate incubated for 2 hrs in presence of NADPH. More on the design: species or system Homo sapiens.
Assay [5] has as its system HepG2. Nature of the assay: Inhibition of TrxR in human HepG2 cells at 2.5 to 10 uM incubated for 52 hrs by TRFS-green staining based fluorescence microscopic analysis. The format is cell-based. To be noted: dose 2.5-10 µM.
Assay [6] concerns the target Thioredoxin reductase (Escherichia coli (strain K12), UniProt P0A9P4). The assay is described as follows: Inhibition of Escherichia coil TrxR incubated for 2 hrs in presence of DTT and insulin.
The species entered for assay [7] is Homo sapiens. Nature of the assay: Inhibition of recombinant TrxR (unknown origin) using DTNB as substrate at 10 to 40 uM incubated for 2 hrs in presence of NADPH. To be noted: dose 10-40 µM.
Assay [8] has as its target Thioredoxin reductase (Escherichia coli (strain K12)) (UniProt P0A9P4). The assay is described as follows: Inhibition of Escherichia coil TrxR at 10 to 40 uM incubated for 2 hrs in presence of DTT and insulin. To be noted: dose 10-40 µM.
The test system of assay [9] is HepG2. The assay is described as follows: Inhibition of TrxR in human HepG2 cells at 2.5 to 10 uM incubated for 48 hrs by NBL-SS probe based assay. The format is cell-based. The note with it: dose 2.5-10 µM.
For assay [10], the system named is HepG2. Nature of the assay: Induction of ROS generation in human HepG2 cells assessed as increase in intracellular ROS level at 2.5 to 10 uM incubated for 48 hrs by DCFH-DA staining based fluorescence microscopy. The note with it: dose 2.5-10 µM. Type of assay: functional, cell-based.
The test system of assay [11] is HepG2. Nature of the assay: Inhibition of colony formation in human HepG2 cells assessed as reduction in colony number at 5 to 10 uM incubated for 5 days by crystal violet staining assay. The format is functional, cell-based. The note with it: dose 5-10 µM, time 5.0 day.
Assay [12] concerns HepG2. Nature of the assay: Inhibition of colony formation in human HepG2 cells at 5 uM incubated for 5 days by crystal violet staining assay. The format is functional. To be noted: HepG2, 120 h, time 5 day.
Assay [13] has as its system HepG2. The assay is described as follows: Induction of cell cycle arrest in human HepG2 cells assessed as accumulation at G1 phase at 10 uM incubated for 48 hrs by propidium iodide staining based flow cytometry (reference value: 64.6%). The format is functional.
The test system of assay [14] is HepG2. Nature of the assay: Induction of cell cycle arrest in human HepG2 cells assessed as accumulation at S phase at 10 uM incubated for 48 hrs by propidium iodide staining based flow cytometry (reference value: 20.55%). Type of assay: functional.
In assay [15] the test system is HepG2. Nature of the assay: Induction of cell cycle arrest in human HepG2 cells assessed as accumulation at G2 phase at 10 uM incubated for 48 hrs by propidium iodide staining based flow cytometry (reference value: 14.85%). The format is functional.
In assay [16] the test system is HepG2. The assay is described as follows: Inhibition of cell migration in human HepG2 cells at 5 to 10 uM incubated upto 48 hrs by wound healing assay. The format is functional, cell-based. To be noted: dose 5-10 µM.

Thioredoxin reductase (Escherichia coli (strain K12)), sequence (P0A9P4 whole entry): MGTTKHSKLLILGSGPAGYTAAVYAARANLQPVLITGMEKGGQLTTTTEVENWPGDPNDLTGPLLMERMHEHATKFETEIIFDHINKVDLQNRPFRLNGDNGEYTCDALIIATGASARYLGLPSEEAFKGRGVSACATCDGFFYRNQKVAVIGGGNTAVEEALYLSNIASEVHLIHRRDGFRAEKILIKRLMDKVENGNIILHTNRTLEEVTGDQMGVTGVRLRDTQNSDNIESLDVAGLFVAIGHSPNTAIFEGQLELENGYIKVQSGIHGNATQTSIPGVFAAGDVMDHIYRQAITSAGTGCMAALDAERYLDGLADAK
Thioredoxin reductase, sequence (P0A9P4 whole entry): as above

The IC50 is the midpoint of a concentration-inhibition curve. For the compound `C=C(COC(=O)Nc1ccc(C)cc1)C(=O)NC(C(=O)NC(C)(C)C)c1ccc(F)cc1` (configuration not stated), the IC50 in [1], in assay [2] and in assay [3] was more than 20 µM throughout.
As for `C=C(COC(=O)Nc1ccc(C)cc1)C(=O)NC(C(=O)NCC(=O)OCC)c1ccc(Cl)cc1` (configuration not stated), the IC50 in [1], in [2] and in assay [3] was more than 20 µM in each case.
For the compound `C=C(COC(=O)Nc1ccc(C)cc1)C(=O)NC(C(=O)NCC(=O)OCC)c1ccc(F)cc1` (configuration not stated), the values for the 50% inhibitory concentration (IC50) in [1], in assay [2] and in assay [3] were more than 20 µM, 17.6 µM and more than 20 µM, respectively.
In general, inhibition refers to the percentage by which the read-out fell short of the control. For the compound `C=C(COC(=O)Nc1ccc(C)cc1)C(=O)NC(CC(C)C)C(=O)NCC(=O)OCC` (configuration not stated), the concentration for half-maximal inhibition (IC50) was more than 20 µM in assay [1]; 4.7 µM in assay [2]; more than 20 µM in [3]; 4.18 µM in [4]; 16.6 µM in assay [6]. The inhibition result in [5], in assay [7], in [8], in [9], in assay [11] and in assay [16] was “Dose-Dependent Effect” in each case. Besides, the Activity entry in assay [10] was “Dose-Dependent Effect”; in assay [13], 72.24%; in [14] it was 17.74%; in assay [15], 10.02%. In addition, the inhibition at 5 µM in assay [12] was 67.1%.
As to `C=C(COC(=O)Nc1ccc(C)cc1)C(=O)NC(C(=O)NC(C)(C)C)c1ccc(Cl)cc1Cl` (configuration not stated), the half-maximal inhibitory concentration (IC50) in assay [1], in [2] and in [3] was more than 20 µM throughout.
As to `C=C(COC(=O)Nc1ccc(C)cc1)C(=O)NC(CC(C)C)C(=O)NC(C)(C)C` (configuration not stated), the concentration for half-maximal inhibition (IC50) in [1], in assay [2] and in [3] was more than 20 µM each time.
`C=C(COC(=O)Nc1ccc(C)cc1)C(=O)NC(C(=O)NC(C)(C)C)c1ccc(Br)cc1` (configuration not stated): the IC50 in assay [1], in [2] and in [3] was more than 20 µM in each case.
Take `C=C(COC(=O)Nc1ccc(C)cc1)C(=O)NC(C(=O)NCC(=O)OCC)c1ccc(Cl)cc1Cl` (configuration not stated): the IC50 in assay [1], in [2] and in [3] was more than 20 µM each time.
Take `CCC(C)SSc1ncc[nH]1` (configuration not stated) [PX-12]: the 50% inhibitory concentration (IC50) in assay [1] is 9 µM; in assay [2] it was 12 µM; in assay [3], more than 20 µM.
On the same counts, the results for `C=C(COC(=O)Nc1ccc(C)cc1)C(=O)NC(C(=O)NC(C)(C)C)c1ccccc1` (configuration not stated) are more than 20 µM, more than 20 µM and more than 20 µM.
On the same counts, the results for `C=C(COC(=O)Nc1ccc(C)cc1)C(=O)NC(C(=O)NC(C)(C)C)c1ccc(Cl)cc1` (configuration not stated) are more than 20 µM, 11.6 µM and more than 20 µM.
On the same counts, the results for `C=C(COC(=O)Nc1ccc(C)cc1)C(=O)NC(C(=O)NCC(=O)OCC)c1ccc(Br)cc1` (configuration not stated) are more than 20 µM, 18.8 µM and more than 20 µM.
With `C=C(COC(=O)Nc1ccc(C)cc1)C(=O)NC(C(=O)NCC(=O)OCC)c1ccccc1` (configuration not stated), the results for the IC50 in assay [1], in assay [2] and in [3] were more than 20 µM, 11.5 µM and more than 20 µM, respectively.
